As a reminder, the bioavailability is dose-corrected exposure relative to a reference, in per cent. Low readings indicate little systemic uptake, high ones much systemic uptake. The term MIC denotes the lowest concentration that inhibits growth of the organism. The low end stands for inhibition by little substance, the high end for a need for much substance.

This note sets out measurements from ChEMBL document CHEMBL1155983, “Synthesis of novel [1,2]-diamines with antituberculosis activity” (Bioorg Med Chem Lett, 2009).

Converted amounts (≈) assume the structure as drawn.

System in one data set: not listed separately
Description: Oral bioavailability in dog. It counts as ADME, organism-based, Canis lupus familiaris. As to conditions: in vivo.
Turning to `CC(C)=CCC/C(C)=C/CNCCNC1C2CC3CC(C2)CC1C3.Cl.Cl` (centres undefined), the bioavailability was 3.8%.

System in another data set: not listed separately
Description: Oral bioavailability in rat. The following applies: in vivo. It counts as ADME, organism-based.
The molecule `CC(C)=CCC/C(C)=C/CNCCNC1C2CC3CC(C2)CC1C3.Cl.Cl` (centres undefined) yielded a bioavailability of 12%.

In a further data set the test system is Mycobacterium tuberculosis. Nature of the data set: Antituberculosis activity against Mycobacterium tuberculosis H37Rv by microbroth dilution assay. The format is functional.
Settings: not given
(In broth dilution the organism is exposed to a series of concentrations in liquid medium.)
Molecule `CC(C)=CCC/C(C)=C/CNCCNC1C2CC3CC(C2)CC1C3.Cl.Cl` (centres undefined) returned an MIC of 0.6 µM.
As for `CC(C)=CCC/C(C)=C/CNCCNC1C2CC3CC(C2)CC1(O)C3` (centres undefined), it took 0.6 µM (≈ 0.208 µg/mL) to inhibit growth (MIC).
The same measure, in the same setting: the result for `CC(C)=CCC/C(C)=C/CNCCNC1C2CC3CC1CC(F)(C3)C2` (centres undefined) reads 0.6 µM (≈ 0.209 µg/mL); that for `CC(C)=CCC/C(C)=C/C(C)NCCNC1C2CC3CC(C2)CC1C3` (centres undefined), 1.2 µM (≈ 0.414 µg/mL).
Same read-out and setting: the result for `CCC(/C=C(\C)CCC=C(C)C)NCCNC1C2CC3CC(C2)CC1C3` (centres undefined) reads 1.2 µM (≈ 0.43 µg/mL); that for `CC(C)=CCC/C(C)=C/C(Cc1ccccc1)NCCNC1C2CC3CC(C2)CC1C3` (centres undefined), 1 µM (≈ 0.421 µg/mL); that for `COC12CC3CC(C1)C(NCCNC/C=C(\C)CCC=C(C)C)C(C3)C2` (centres undefined), 1.7 µM (≈ 0.613 µg/mL).
The molecule `CC(C)=CCC/C(C)=C/CNCCNC1C2CC3CC(C2)CC1(F)C3` (centres undefined) displayed an MIC of 0.3 µM (≈ 0.105 µg/mL).
Still for that read-out and setting: the result for `CC(C)=CCC/C(C)=C/CNCCNC1C2CC3CC1CC(O)(C3)C2` (centres undefined) reads 8.6 µM (≈ 2.98 µg/mL); that for `COC12CC3CC(CC(C3)C1NCCNC/C=C(\C)CCC=C(C)C)C2` (centres undefined), 0.5 µM (≈ 0.18 µg/mL); that for `CC(C)=CCC/C(C)=C/C(Cc1ccc(F)cc1)NCCNC1C2CC3CC(C2)CC1C3` (centres undefined), 3 µM (≈ 1.32 µg/mL).
The same measure, in the same setting: the result for `CC(C)=CCC/C(C)=C/C(Cc1ccc(OC(F)(F)F)cc1)NCCNC1C2CC3CC(C2)CC1C3` (centres undefined) reads 5.2 µM (≈ 2.62 µg/mL).
